{
  "source": "paper PMC12612990",
  "about": "“PNA5, a glycosylated angiotensin-(1−7) mas receptor agonist for vascular dementia: A two species toxicology and toxicokinetic study” (Toxicology Reports, 2025)",
  "assay": "Toxicokinetics of PNA5 in Beagle dog plasma",
  "details": "for AUC(0-t) / Cmax / half-life / Tmax: both, Beagle, dog, sc; for AUC(0-t): AUC0–2, dogs; for Cmax: Beagle dogs, noncompartmental; for Tmax: table: average (range), text b115: median; for AUC0–2hr accumulation ratio: day 28 vs day 1, sexes combined; for fold increase in AUC0–2hr for a 20-fold increase in dose / fold increase in Cmax for a 20-fold increase in dose: 1 to 20 mg/kg/day; for time post-dose up to which PNA5 was quantifiable: days 1 and 28, limit of quantitation 5 ng/mL",
  "note": "Peptide text beside a SMILES is read from it. * marks the point of attachment. βGlc = OC[C@H]1O[C@@H](*)[C@H](O)[C@@H](O)[C@@H]1O",
  "description": "Toxicokinetic (TK) of PNA5 was obtained from plasma following a single and repeated subcutaneous injection administration of PNA5 once daily for 28 days. Blood samples were collected on days 1 and 28 at the following time points: pre-dose and at approximately 5, 15, 30, 60, and 120 min post-dose (equivalent to 0.083, 0.25, 0.5, 1, and 2 h).\nFor the rat study, a total of 6 rats for each sex were assigned randomly to treatment groups 2–4 (those treated with PNA5). Three rats per sex were assigned to group 1 (vehicle control). Rats were sampled in satellite groups; rats' blood was taken at alternating time points, resulting in a total n = 3 per time point for six animals. For the dog study, three animals per sex were assigned to group 2 and group 3, and five animals per sex were assigned to group 1 and group 4. Blood was collected from canines via venipuncture.\nBlood was collected in heparinized tubes containing a protease inhibitor cocktail consisting of 4 mM 0-phenanthroline, 1.2 mM pepstatin A, and 0.5 M EDTA. Blood samples were centrifuged for 15 min at 2500 x g at room temperature. Plasma was transferred into pre-cooled, pre-labeled collection tubes, frozen immediately in liquid nitrogen/dry ice, and stored at −80 °C until analysis.\nPNA5 levels were analyzed using ultra-high performance liquid chromatography (UHPLC) with tandem mass spectrometric (MS/MS) detection. Precision and accuracy, reproducibility, selectivity, carryover, recovery, matrix effects, dilution integrity, hemolysis, stock stability, and matrix stability were assessed prior to initiation of the validation. Samples (5 µL) were injected onto the column and separated using gradient elution. Target compounds were quantified by summing the height of previously identified fragment peaks in the LC-MS [3] spectra. The serum concentrations were estimated using a calibration curve, accounting for the dilution factors and the probe recoveries for each experiment. Standards were matrix-matched to samples and underwent the same sample preparation steps.\nA noncompartmental analysis was used for parameter estimation. For PNA5 in plasma, the extravascular model was used for parameter estimation. For the rat study, all parameters were generated from PNA5 individual concentrations in plasma from days 1 and 28. Parameters were estimated using nominal dose levels and nominal sampling times relative to the dose administration. Plasma concentration values obtained at the pre-dose time point were used as the concentration at time 0 on days 1 and 28. For the dog study, all parameters were generated from PNA5 individual concentrations in plasma from days 1 and 28. Parameters were estimated using nominal dose levels and nominal sampling times relative to dose administration. Plasma concentration values obtained at the pre-dose time point were used as the concentration at time 0 on days 1 and 28. For Beagle dogs, concentration values reported as below the limit of quantitation (< 5 ng/mL) were assigned a value of 0.\nThe toxicokinetic parameters evaluated included the area under the curve of the plasma PNA5 concentration against time from time 0 (pre-dose) to 2 h (post-dose) (AUC0–2hr), the maximum plasma concentration (Cmax), time to maximum plasma concentration (Tmax), elimination rate (Kel), and the half-life. The area under the concentration vs. time curve was calculated using the linear trapezoidal method with linear interpolation for all profiles with at least three consecutive quantifiable concentrations. Kel was calculated from the slope using exponential regression of concentration versus time (Excel); exponential interpolations for all profiles include at least three concentrations plotted against time. Time 0 values and all concentrations listed as zero were excluded from Kel calculations. The half-life was calculated from Kel via the following equation: half-life Ln(2)/Kel.",
  "data": [
    {"smiles": "CC[C@H](C)[C@H](NC(=O)[C@H](Cc1ccc(O)cc1)NC(=O)[C@@H](NC(=O)[C@H](CCCNC(=N)N)NC(=O)[C@@H](N)CC(=O)O)C(C)C)C(=O)N[C@@H](Cc1c[nH]cn1)C(=O)N[C@@H](CO[C@@H]1O[C@H](CO)[C@@H](O)[C@H](O)[C@H]1O)C(N)=O", "note": "[PNA5, Ang-1–6-Ser-O-Glu-NH2] (H-DRVYIHS(βGlc)-NH2)", "values": [
      {"measurement": "AUC(0-t)", "setting": "plasma, 1 mg/kg/day, plasma, s.c. 1 mg/kg/day, day 1, sexes combined, mean ± SD, n = 6, linear trapezoidal", "result": "63.5 ± 14.8", "unit": "ng·h/mL"},
      {"measurement": "Cmax", "setting": "plasma, 1 mg/kg/day, plasma, s.c. once daily 1 mg/kg/day, day 1, sexes combined, mean ± SD, n = 6, UHPLC-MS/MS", "result": "110 ± 37.3", "unit": "ng/mL"},
      {"measurement": "Cmax", "setting": "plasma, 1 mg/kg/day, plasma, s.c. once daily 1 mg/kg/day, day 28, sexes combined, mean ± SD, n = 6, UHPLC-MS/MS", "result": "146 ± 59.6", "unit": "ng/mL"},
      {"measurement": "half-life", "setting": "plasma, 1 mg/kg/day, dogs, plasma, s.c. 1 mg/kg/day, day 1, sexes combined, mean ± SD, n = 6, Ln(2)/Kel", "result": "17.4 ± 6", "unit": "min"},
      {"measurement": "half-life", "setting": "plasma, 1 mg/kg/day, dogs, plasma, s.c. 1 mg/kg/day, day 28, sexes combined, mean ± SD, n = 6, Ln(2)/Kel", "result": "15.6 ± 4.8", "unit": "min"},
      {"measurement": "Tmax", "setting": "plasma, 1 mg/kg/day, dogs, plasma, s.c. 1 mg/kg/day, day 1, sexes combined", "result": 10, "unit": "min"},
      {"measurement": "AUC(0-t)", "setting": "plasma, 5 mg/kg/day, plasma, s.c. 5 mg/kg/day, day 1, sexes combined, mean ± SD, n = 6, linear trapezoidal", "result": "358 ± 95.1", "unit": "ng·h/mL"},
      {"measurement": "AUC(0-t)", "setting": "plasma, 5 mg/kg/day, plasma, s.c. 5 mg/kg/day, day 28, sexes combined, mean ± SD, n = 6, linear trapezoidal", "result": "365 ± 42.6", "unit": "ng·h/mL"},
      {"measurement": "Cmax", "setting": "plasma, 5 mg/kg/day, plasma, s.c. once daily 5 mg/kg/day, day 1, sexes combined, mean ± SD, n = 6, UHPLC-MS/MS", "result": "496 ± 115", "unit": "ng/mL"},
      {"measurement": "Cmax", "setting": "plasma, 5 mg/kg/day, plasma, s.c. once daily 5 mg/kg/day, day 28, sexes combined, mean ± SD, n = 6, UHPLC-MS/MS", "result": "444 ± 101", "unit": "ng/mL"},
      {"measurement": "half-life", "setting": "plasma, 5 mg/kg/day, dogs, plasma, s.c. 5 mg/kg/day, day 1, sexes combined, mean ± SD, n = 6, Ln(2)/Kel", "result": "30 ± 7.8", "unit": "min"},
      {"measurement": "half-life", "setting": "plasma, 5 mg/kg/day, dogs, plasma, s.c. 5 mg/kg/day, day 28, sexes combined, mean ± SD, n = 6, Ln(2)/Kel", "result": "34.8 ± 12.6", "unit": "min"},
      {"measurement": "Tmax", "setting": "plasma, 5 mg/kg/day, dogs, plasma, s.c. 5 mg/kg/day, day 1, sexes combined", "result": 15, "unit": "min"},
      {"measurement": "Tmax", "setting": "plasma, 5 mg/kg/day, dogs, plasma, s.c. 5 mg/kg/day, day 28, sexes combined", "result": 10, "unit": "min"},
      {"measurement": "AUC(0-t)", "setting": "plasma, 20 mg/kg/day, plasma, s.c. 20 mg/kg/day, day 1, sexes combined, mean ± SD, n = 10, linear trapezoidal", "result": "1270 ± 270", "unit": "ng·h/mL"},
      {"measurement": "AUC(0-t)", "setting": "plasma, 20 mg/kg/day, plasma, s.c. 20 mg/kg/day, day 28, sexes combined, mean ± SD, n = 10, linear trapezoidal", "result": "1080 ± 309", "unit": "ng·h/mL"},
      {"measurement": "Cmax", "setting": "plasma, 20 mg/kg/day, plasma, s.c. once daily 20 mg/kg/day, day 1, sexes combined, mean ± SD, n = 10, UHPLC-MS/MS", "result": "1440 ± 453", "unit": "ng/mL"},
      {"measurement": "Cmax", "setting": "plasma, 20 mg/kg/day, plasma, s.c. once daily 20 mg/kg/day, day 28, sexes combined, mean ± SD, n = 10, UHPLC-MS/MS", "result": "1120 ± 530", "unit": "ng/mL"},
      {"measurement": "half-life", "setting": "plasma, 20 mg/kg/day, dogs, plasma, s.c. 20 mg/kg/day, day 1, sexes combined, mean ± SD, n = 10, Ln(2)/Kel", "result": "41.4 ± 6", "unit": "min"},
      {"measurement": "half-life", "setting": "plasma, 20 mg/kg/day, dogs, plasma, s.c. 20 mg/kg/day, day 28, sexes combined, mean ± SD, n = 9, Ln(2)/Kel", "result": "48.6 ± 12.6", "unit": "min"},
      {"measurement": "Tmax", "setting": "plasma, 20 mg/kg/day, dogs, plasma, s.c. 20 mg/kg/day, day 1, sexes combined", "result": 15, "unit": "min"},
      {"measurement": "Tmax", "setting": "plasma, 20 mg/kg/day, dogs, plasma, s.c. 20 mg/kg/day, day 28, sexes combined", "result": 22.5, "unit": "min"},
      {"measurement": "AUC0–2hr accumulation ratio", "setting": "dogs, 1 mg/kg/day", "result": 0.99},
      {"measurement": "AUC0–2hr accumulation ratio", "setting": "dogs, 5 mg/kg/day", "result": 1.02},
      {"measurement": "AUC0–2hr accumulation ratio", "setting": "dogs, 20 mg/kg/day", "result": 0.85},
      {"measurement": "fold increase in AUC0–2hr for a 20-fold increase in dose", "setting": "dogs, day 1, sexes combined", "result": "~20.06", "unit": "fold"},
      {"measurement": "fold increase in Cmax for a 20-fold increase in dose", "setting": "dogs, day 1, sexes combined", "result": "~13.06", "unit": "fold"},
      {"measurement": "fold increase in AUC0–2hr for a 20-fold increase in dose", "setting": "dogs, day 28, sexes combined", "result": "~17.19", "unit": "fold"},
      {"measurement": "fold increase in Cmax for a 20-fold increase in dose", "setting": "dogs, day 28, sexes combined", "result": "~7.70", "unit": "fold"},
      {"measurement": "time post-dose up to which PNA5 was quantifiable", "setting": "dogs, plasma, 1 mg/kg/day", "result": "up to 1 h"},
      {"measurement": "time post-dose up to which PNA5 was quantifiable", "setting": "dogs, plasma, 5 and 20 mg/kg/day, last sampling time 2 h", "result": "up to 2 h"},
      {"measurement": "Kel", "setting": "dogs, plasma, s.c. 1 mg/kg/day, day 1, sexes combined, mean ± SD, n = 6, exponential regression", "result": "2.63 ± 0.97, 6 hr^–1"}
    ]}
  ]
}
